Tested on: db/db mice
Experiment: In vivo assay in db/db mice (model of postprandial glycemia)
Details: db/db mice fasted 20 hours, 50 mg/kg p.o., 4 hrs after drug administration, compared to vehicle-treated animals (Group 1)
Experimental: In Vivo Assay in db/db Mice
The following assay aims at determining the anti-diabetic effect of the test compounds of formula (I) in a model of postprandial glycemia in db/db mice, in vivo.
The assay was performed as follows:
A total of 18 db/db mice (about 8-9 weeks; obtained from IFFACREDO, l'Arbreste, France) were fasted during 20 hours.
3 groups, each consisting of 6 animals were formed: • Group 1: The animals were administered (per os) a dose of 10 mg/kg of vehicle. • Group 2: The animals were administered (per os) a dose of 30 mg/kg of the test compound according to formula (I). • Group 3: The animals were administered (per os) a dose of 50 mg/kg of the test compound according to formula (I).
After oral administration of the compounds of formula (I) solubilized or suspended in CarboxyMethylCellulose (0.5%), Tween 20 (0.25%) and water as vehicle, the animals had access to commercial food (D04, UAR, Villemoisson/Orge, France) ad libitum. The diabetic state of the mice was verified by determining the blood glucose level before drug administration. Blood glucose and serum insulin levels were then determined 4 hrs after drug administration. […]
Changes in blood glucose and serum insulin of drug treated mice were expressed as a percentage of control (group 1: vehicle treated mice).

## CCCCNC1CCN(S(=O)(=O)c2ccc(CNC(=O)c3ccc(Cl)cc3)s2)CC1 [4-chloro N-[(5-{[(butylamino)piperidin-1-yl]sulfonyl}thien-2-yl)methyl]benzamide]
ELISA
  decrease in the (serum/blood) insulin level: 61%
  decrease in blood glucose level induced by food intake: 42%
